Test results reported in patent US20230117592A1 (SRI International, priority 2019, published 2023).
Several values for one entry are separate records, joined by “and”; a condition that tells them apart may be missing. Equal entries are not always repeated. Where two headings read alike, the source gives them in different places.

Columns and labels:
[1] = biological target: T1, 5-LOX (Homo sapiens, UniProt P09917); experiment: 5-LOX fluorescent assay (in vitro lipoxygenase inhibition); assay type: biochemical
T1 sequence (P09917 1-674): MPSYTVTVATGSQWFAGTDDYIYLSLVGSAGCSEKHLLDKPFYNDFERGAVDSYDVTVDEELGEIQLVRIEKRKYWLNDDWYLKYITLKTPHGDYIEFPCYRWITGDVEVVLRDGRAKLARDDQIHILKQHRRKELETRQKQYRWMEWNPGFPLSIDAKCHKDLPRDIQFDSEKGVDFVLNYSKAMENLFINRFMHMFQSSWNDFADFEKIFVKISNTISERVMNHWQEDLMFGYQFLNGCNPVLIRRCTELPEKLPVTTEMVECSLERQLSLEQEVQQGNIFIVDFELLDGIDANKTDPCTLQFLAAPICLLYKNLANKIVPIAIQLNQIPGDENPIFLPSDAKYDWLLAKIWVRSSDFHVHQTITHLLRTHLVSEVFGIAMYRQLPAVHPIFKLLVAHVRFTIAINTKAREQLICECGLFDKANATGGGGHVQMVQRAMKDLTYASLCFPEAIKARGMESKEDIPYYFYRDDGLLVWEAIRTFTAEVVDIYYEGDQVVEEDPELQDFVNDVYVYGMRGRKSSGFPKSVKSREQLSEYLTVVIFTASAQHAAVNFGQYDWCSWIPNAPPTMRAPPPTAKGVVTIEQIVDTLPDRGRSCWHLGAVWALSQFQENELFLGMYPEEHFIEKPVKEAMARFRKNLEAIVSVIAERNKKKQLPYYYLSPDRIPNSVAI
Summary of the method: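 Recombinant human 5-LOX cell lysate pre-incubated 15 min with inhibitor in 50 mM Tris pH 7.5, 0.1 mM EDTA, 0.3 mM CaCl2. Reaction started with 20 μM arachidonic acid plus 100 μM ATP, with 1 μM DHR123 as fluorescent probe. IC50 from percent inhibition per dose via 4-parameter logistic or sigmoidal dose-response fit.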

[2] = biological target: T2, 12-LOX (Homo sapiens, UniProt P18054); experiment: 12-LOX fluorescent assay (in vitro lipoxygenase inhibition); assay type: biochemical
T2 sequence (P18054 1-663): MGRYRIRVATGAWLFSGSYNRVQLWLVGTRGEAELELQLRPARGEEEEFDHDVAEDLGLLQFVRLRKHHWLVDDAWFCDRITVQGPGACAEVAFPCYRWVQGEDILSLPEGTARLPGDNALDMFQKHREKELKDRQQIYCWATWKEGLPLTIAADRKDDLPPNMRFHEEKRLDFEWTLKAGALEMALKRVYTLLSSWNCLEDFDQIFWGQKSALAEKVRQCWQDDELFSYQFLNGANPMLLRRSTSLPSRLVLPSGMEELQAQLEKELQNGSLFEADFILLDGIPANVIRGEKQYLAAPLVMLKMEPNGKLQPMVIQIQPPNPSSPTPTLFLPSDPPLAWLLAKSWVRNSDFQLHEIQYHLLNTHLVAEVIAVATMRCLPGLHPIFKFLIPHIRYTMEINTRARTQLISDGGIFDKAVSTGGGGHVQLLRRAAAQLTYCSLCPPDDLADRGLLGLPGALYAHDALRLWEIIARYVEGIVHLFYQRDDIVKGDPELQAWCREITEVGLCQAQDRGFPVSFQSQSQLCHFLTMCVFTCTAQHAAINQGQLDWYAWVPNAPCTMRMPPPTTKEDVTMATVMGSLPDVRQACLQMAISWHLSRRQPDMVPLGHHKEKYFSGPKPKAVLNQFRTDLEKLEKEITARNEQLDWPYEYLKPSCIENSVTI
Summary of the method: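 Fluorescent assay in 50 mM Tris pH 7.5, 0.05% Tween-20, with 100 nM recombinant 12-LOX preincubated 15 min with inhibitor. Reaction was started with 20 μM arachidonic acid substrate and 1 μM DHR123. Percent inhibition per dose was fitted by 4-parameter logistic or sigmoidal dose-response for IC50.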

[3] = recombinant 5-LOX cell lysate, 20 μM AA, DHR123 fluorescence, several values in a cell = repeat determinations, read-out: IC50 (μM) values for in vitro lipoxygenase inhibition, 5-LOX
[4] = 100 nM recombinant 12-LOX, 20 μM AA, DHR123 fluorescence, several values in a cell = repeat determinations, read-out: IC50 (μM) values for in vitro lipoxygenase inhibition, 12-LOX

Compound | IC50 [1, 3] [µM] | IC50 [2, 4] [µM] | IC50 [2] | IC50 [1]
c1ccc(Nc2ccc(C3CCCO3)c(NCCn3cncn3)c2)cc1 (centres unmarked) [SS20308-0195-01, N^3-(2-(1H-1,2,4-triazol-1-yl)ethyl)-N^1-phenyl-4-(tetrahydrofuran-2-yl)benzene-1,3-diamine] | 0.76 | 0.36 |  | 
c1ccc(Nc2cccc(NCCn3cncn3)c2)cc1 [SS20308-0223-01, N^1-(2-(1H-1,2,4-triazol-1-yl)ethyl)-N^3-phenylbenzene-1,3-diamine] | 0.49 | 0.11 |  | 
Fc1ccc(Nc2ccc(NCCn3cncn3)cn2)cc1 [SS20308-0248-01, N^5-(2-(1H-1,2,4-triazol-1-yl)ethyl)-N^2-(4-fluorophenyl)pyridine-2,5-diamine] | 0.63 | 0.1 |  | 
c1ccc(CNc2cnc(NCCn3cncn3)c(-c3ccccc3)c2)cc1 [SS20308-0212-01, N^2-(2-(1H-1,2,4-triazol-1-yl)ethyl)-N^5-benzyl-3-phenylpyridine-2,5-diamine] | 2.93 | 1.61 |  | 
CN(CCn1cncn1)c1cccc(Nc2ccc(F)cc2)c1 [SS20308-0252-01, N^1-(2-(1H-1,2,4-triazol-1-yl)ethyl)-N^3-(4-fluorophenyl)-N^1-methylbenzene-1,3-diamine] | 1.09 | 0.26 |  | 
c1ccc(Nc2cccc(-c3ccccc3)c2NCCn2cncn2)cc1 [SS20308-0153-01, N^2-(2-(1H-1,2,4-triazol-1-yl)ethyl)-N^3-phenylbiphenyl-2,3-diamine] | 0.71 | 0.2 |  | 
c1ccc(Nc2cnc(-c3ccccc3)c(NCCn3cncn3)c2)cc1 [SS20308-0173-01, N^3-(2-(1H-1,2,4-triazol-1-yl)ethyl)-N^5,2-diphenylpyridine-3,5-diamine] | 2.22 | 1.09 |  | 
c1ccc(Nc2ccc(-c3ccccc3)c(OCCn3cncn3)c2)cc1 [SS20308-0132-01, 2-(2-(1H-1,2,4-triazol-1-yl)ethoxy)-N-phenyl-[1,1′-biphenyl]-4-amine] | 0.6 |  | 0.49 µM | 
Cn1cc(-c2ccc(Nc3ccccc3)cc2NCCn2cncn2)cn1 [SS20308-0191-01, N^3-(2-(1H-1,2,4-triazol-1-yl)ethyl)-4-(1-methyl-1H-pyrazol-4-yl)-N^1-phenylbenzene-1,3-diamine] | 4.18 |  | 1.96 µM | 
COc1ccc(CNc2ccc3c(-c4ccccc4)cc(=O)[nH]c3c2OCCN(C)C)cc1 [SS20308-0053-01, 8-(2-(dimethylamino)ethoxy)-7-((4-methoxybenzyl)amino)-4-phenylquinolin-2(1H)-one] | 3.36 | 5.2 |  | 
c1ccc(Nc2ccc(-c3ccccc3)c(NCCCn3cncn3)c2)cc1 [SS20308-0178-01, N^2-(3-(1H-1,2,4-triazol-1-yl)propyl)-N^4-phenylbiphenyl-2,4-diamine] |  |  | 0.09 µM and 0.11 µM and 0.07 µM and 0.14 µM | 150 nM and 210 nM (2×) and 90 nM
COc1ccc(CNc2cccc(N)c2OCCN(C)C)cc1 [SS20308-0025-01, 2-(2-(dimethylamino)ethoxy)-N^1-(4-methoxybenzyl)benzene-1,3-diamine] | 7.31 | 1.29 |  | 
CCOC(=O)c1ccc(Nc2cccc(Nc3ccccc3)c2OCCn2cncn2)cc1 [SS20308-0055-01, ethyl 4-(2-(2-(1H-1,2,4-triazol-1-yl)ethoxy)-3-(phenylamino)phenylamino)benzoate] | 3.33 | 1.64 |  | 
c1ccc(CNc2ccc(-c3ccccc3)c(NCCn3cncn3)c2)cc1 [SS20308-0096-01, N^2-(2-(1H-1,2,4-triazol-1-yl)ethyl)-N^4-benzyl-[1,1′-biphenyl]-2,4-diamine] | 0.55 | 0.24 |  | 

Now from value to compound, other results behind:

IC50 [1, 3] [µM] | IC50 [2, 4] [µM] | Compound | IC50 [2] | IC50 [1]
0.32 | 0.26 | c1ccc(Nc2ccc(-c3ccccc3)c(NCCn3cncn3)n2)cc1 [SS20308-0175-01, N^2-(2-(1H-1,2,4-triazol-1-yl)ethyl)-N^6,3-diphenylpyridine-2,6-diamine] |  | 
0.06 | 0.04 | Fc1ccc(Nc2ccc(NCC3(CN4CCOCC4)COC3)c(C(F)(F)F)c2)cc1 |  | 
0.16 | 0.05 | c1ccc(CNc2ccc(NCCn3cncn3)c(-c3ccccc3)n2)cc1 [SS20308-0214-01, N^5-(2-(1H-1,2,4-triazol-1-yl)ethyl)-N^2-benzyl-6-phenylpyridine-2,5-diamine] |  | 
0.4 | 0.17 | c1cc(NCCCn2cncn2)cc(NC2CCCCC2)c1 [SS20308-0238-01, N^1-(3-(1H-1,2,4-triazol-1-yl)propyl)-N^3-cyclohexylbenzene-1,3-diamine] |  | 
0.07 | 0.03 | Fc1ccc(Nc2ccc(NCCCN3CCOCC3)c(C(F)(F)F)c2)cc1 [SS20308-0316-01, N^4-(4-fluorophenyl)-N^1-(3-morpholinopropyl)-2-(trifluoromethyl)benzene-1,4-diamine] |  | 
0.17 | 0.14 | Clc1ccc(-c2ccc(Nc3ccccc3)cc2NCCn2cncn2)cc1 [SS20308-0147-01, N^2-(2-(1H-1,2,4-triazol-1-yl)ethyl)-4′-chloro-N^4-phenylbiphenyl-2,4-diamine] |  | 
0.39 | 0.03 | Fc1ccc(CNc2cc(F)c(NCCn3cncn3)c(-c3ccccc3)c2)cc1 [SS20308-0227-01, N^2-(2-(1H-1,2,4-triazol-1-yl)ethyl)-3-fluoro-N^5-(4-fluorobenzyl)-[1,1′-biphenyl]-2,5-diamine] |  | 
0.05 | 0.02 | Cc1cc(Nc2ccc(Cl)c(F)c2)ccc1NCC1(CN2CCOCC2)COC1 [SS20308-0323-01, N^4-(4-chloro-3-fluorophenyl)-2-methyl-N^1-((3-(morpholinomethyl)oxetan-3-yl)methyl) benzene-1,4-diamine] |  | 
0.25 | 0.21 | CN(C)CCCNc1ccc(NC(c2ccccc2)C(F)(F)F)cc1F (centres unmarked) [SS20308-0302-01, N^1-(3-(dimethylamino)propyl)-2-fluoro-N^4-(2,2,2-trifluoro-1-phenylethyl)benzene-1,4-diamine] |  | 
0.04 | 0.03 | FC(F)(F)C(Nc1ccc(NCCCN2CCOCC2)c(C2CCCCC2)c1)c1ccccc1 (centres unmarked) [SS20308-0325-01, 2-cyclohexyl-N^1-(3-morpholinopropyl)-N^4-(2,2,2-trifluoro-1-phenylethyl)benzene-1,4-diamine] |  | 
0.05 | 0.03 | Fc1ccc(CNc2ccc(NCCn3cncn3)c(-c3cccc4cc[nH]c34)c2)cc1 [SS20308-0225-01, N^1-(2-(1H-1,2,4-triazol-1-yl)ethyl)-N^4-(4-fluorobenzyl)-2-(1H-indol-7-yl)benzene-1,4-diamine] |  | 
0.28 | 0.18 | Cc1ccc(NCc2ccc(F)cc2)cc1NCCCn1cncn1 [SS20308-0237-01, N^3-(3-(1H-1,2,4-triazol-1-yl)propyl)-N^1-(4-fluorobenzyl)-4-methylbenzene-1,3-diamine] |  | 
0.06 | 0.08 | Fc1ccc(Nc2ccc(NCC3(CN4CCCC4)COC3)c(C(F)(F)F)c2)cc1 [SS20308-0320-01, N^4-(4-fluorophenyl)-N^1-((3-(pyrrolidin-1-ylmethyl)oxetan-3-yl)methyl)-2-(trifluoromethyl)benzene-1,4-diamine] |  | 
0.04 | 0.03 | c1ccc(CNc2ccc(NCCn3cncn3)c(-c3cccnc3)c2)cc1 [SS20308-0216-01, N^1-(2-(1H-1,2,4-triazol-1-yl)ethyl)-N^4-benzyl-2-(pyridin-3-yl)benzene-1,4-diamine] |  | 
